Columns and labels:
α5β1 integrin = molecular target: T1, α5β1 integrin (Homo sapiens, UniProt P05556+P08648); test: ELISA: soluble α5β1-hFc binding to immobilized 50 kDa fibronectin fragment in the presence of RGD peptides; conditions: 20 μM peptide
T1 construct: chimeras comprising the extracellular domain of αvβ3, αvβ5, α5β1, and αIIbβ3 linked to the Fc domain of either mouse IgG; purchased Celltech plc (supplied, no catalogue number)
Source text: Four different soluble integrins were supplied by Celltech plc. Soluble forms of αvβ3, αvβ5, α5β1, and αIIbβ3 integrin were generated by constructing chimeras comprising the extracellular domain of αvβ3, αvβ5, α5β1, and αIIbβ3 linked to the Fc domain of either mouse IgG (αvβ3-mFc, αvβ5-mFc, and αIIbβ3-mFc) or human IgG (α5β1-hFc) as described by Stephens et al., Cell Adhes. Commun., 7:377-390 (2000) and Coe et al., J. Biol. Chem., 276:35854-35866 (2001). Since the four soluble integrin chimeras were supplied either as purified proteins (αvβ3-mFc and α5β1-hFc) or as unpurified hybridoma supernatants (αIIbβ3-mFc and αvβ5-mFc), it was necessary to use two types of ELISAs. […] In one type of ELISA (FIGS. 2A and 2B), the immobilized component is a 50 kDa fragment of fibronectin. In the second type of ELISA (FIGS. 2C and 2D), the immobilized component is a goat anti-mFc antibody that is used to capture chimeric proteins so that the RGD binding site of the integrin is maximally exposed. Each three-sided box in FIG. 2 represents a single well of a 96-well plate, and the components are listed in the sequence of their addition to the assay. The immobilized component at the bottom of the well is bound to the well by electrostatic interactions.
To analyze the affinity and selectively of RGD peptides for αvβ3 and α5β1, 96-well ELISA plates were coated with 100 μl of a 5 μg/ml of the 50 kDa fragment of fibronectin in PBS per well and left overnight at 4° C. The plates were washed with PBS using a Denley Wellwash 4 Mk 2. Washing was repeated twice with a 400 μl wash per well. 200 μ/well of blocking buffer (i.e., to prevent non-specific binding of proteins) was then added for 1 hour followed by a repeat washing with PBS. RGD peptides were then added at a maximum concentration of 200 μM and a preliminary screen was performed at three concentrations, 200,20, and 2 μM. 100 μl of an RGD peptide was added to each well and each assay was performed in triplicate. Purified soluble αvβ3-mFc or purified α5β1-hFc was diluted to 2 μg/ml and 15 ng/ml, respectively, in conjugate buffer and 100 μl was added to each well. The plates were incubated for 2 hours with shaking using a Luckham R100 Rotatest at approximately 150 rpm. After incubation, the plates were washed with PBS as previously described and a labeled antibody was added. For the αvβ3 assay, a horseradish peroxidase (HRP)-labeled F(ab′)2 fragment of goat anti-mouse IgG Fc was diluted 1:2000 in conjugate buffer and 100 μl was added to each well. For the α5β1 assay, an HRP-labeled F(ab′)2 fragment of goat anti-human IgG Fc was diluted 1:2000 in conjugate buffer and 100 μl was added to each well. Plates were incubated for 30 minutes with shaking followed by 2 washes with PBS. 100 μl of TMB substrate was added to each well and plates were shaken during a 10 minute color development. Plates were read using a plate spectrophotometer at 630 nm.
Two negative and two positive controls were used in both types of ELISAs. For example, the negative controls were wells that contained 50 μl of an active control peptide, integrin, and biotinylated ligand or 50 μl of the active control peptide and 50 μl of buffer. These negative control wells typically develop little to no color. […] These wells typically develop the maximum amount of color.
FIGS. 3-6 illustrate the percent binding of the vitronectin, fibronectin, or fibrinogen ligand to αvβ5, α5β1, αIIbβ3, or αvβ3 integrin in the presence of RGD peptides (i.e., linear (A), cyclic (B), or 4-[^19F]-fluorobenzoyl cyclic (C)) at different concentrations, with 100% maximum signal being the signal obtained in the absence of the peptide.

A375M melanoma cell line = test: Adhesion assay: [51Cr]-A375M cells to vitronectin; assay type: cell-based, human; conditions: 20 μM peptide
Experimental: (§1) RGD peptides were plated at a maximum concentration of 200 μM and a minimum concentration of 2 nM. For each RGD peptide sequence, linear peptides (A), cyclic peptides (B), and 4-[^19F]-fluorobenzoyl cyclic peptides (C) were assayed. Each RGD peptide concentration was performed in quadruplicate and each experiment was repeated twice.
(§2) Plastic 96-well plates (Falcon 3912; Becton Dickinson) were coated with 50 μl substrate (10 μg/ml laminin or 5 μg/ml vitronectin). The plates were incubated at 37° C. in an 8% CO2 atmosphere for 1 hour. Unbound protein was flicked off and the plates were washed with phosphate buffered saline (PBS) and blocked with bovine serum albumin (0.1% w/v BSA)/PBS/0.1% sodium azide) for 1 hour. The plates were then washed with PBS, placed on a bed of ice and 25 μl of peptide was added to the wells.
Sodium [^51Cr] chromate was purchased from Amersham International, UK. […]
25 μl (about 10,000 cells) were added to each quadruplicate well and the plates incubated at 37° C. in an 8% CO2 atmosphere for 1 hour. […] The radioactivity associated with each well was determined in a gamma counter (1261 Multigamma; Wallac, Sweden). Quadruplicate 25 μl samples of labeled cells were counted as 100% input values. To determine non-specific binding, the ability of cells to bind BSA-coated wells was also assessed. […]
(§3) The results were calculated as follows: [formula] […]

VUP melanoma cell line = test: Adhesion assay: [51Cr]-VUP cells to laminin; assay type: cell-based; conditions: highest concentration (200 μM)
Experimental: as §1, §2
Sodium [^51Cr] chromate was purchased from Amersham International, UK. The solution was made isotonic by the addition of 110 μl 10× Hanks buffered salt solution. 100 μl of this solution (3.7 MBq) was added to 5-10×10^6 cells in 500 μl of serum-containing growth medium. The suspension was incubated at 37° C. for 45 minutes with regular agitation to resuspend the cells. The cells were then washed and spun 3 times with serum-free E4 medium to remove any free [^51Cr]chromium. A trypan blue viability count was performed and the cells were diluted to the necessary volume in serum-free E4 medium (4×10^5 cells/ml).
25 μl (about 10,000 cells) were added to each quadruplicate well and the plates incubated at 37° C. in an 8% CO2 atmosphere for 1 hour. Unbound cells were flicked off and the plates were washed twice with PBS/BSA containing 1 mM CaCl2 and 0.5 mM MgCl2. The plates were dabbed dry and cut into individual wells. The radioactivity associated with each well was determined in a gamma counter (1261 Multigamma; Wallac, Sweden). Quadruplicate 25 μl samples of labeled cells were counted as 100% input values. To determine non-specific binding, the ability of cells to bind BSA-coated wells was also assessed. […]
as §3

T1 sequence (P08648 42-995 limits assumed): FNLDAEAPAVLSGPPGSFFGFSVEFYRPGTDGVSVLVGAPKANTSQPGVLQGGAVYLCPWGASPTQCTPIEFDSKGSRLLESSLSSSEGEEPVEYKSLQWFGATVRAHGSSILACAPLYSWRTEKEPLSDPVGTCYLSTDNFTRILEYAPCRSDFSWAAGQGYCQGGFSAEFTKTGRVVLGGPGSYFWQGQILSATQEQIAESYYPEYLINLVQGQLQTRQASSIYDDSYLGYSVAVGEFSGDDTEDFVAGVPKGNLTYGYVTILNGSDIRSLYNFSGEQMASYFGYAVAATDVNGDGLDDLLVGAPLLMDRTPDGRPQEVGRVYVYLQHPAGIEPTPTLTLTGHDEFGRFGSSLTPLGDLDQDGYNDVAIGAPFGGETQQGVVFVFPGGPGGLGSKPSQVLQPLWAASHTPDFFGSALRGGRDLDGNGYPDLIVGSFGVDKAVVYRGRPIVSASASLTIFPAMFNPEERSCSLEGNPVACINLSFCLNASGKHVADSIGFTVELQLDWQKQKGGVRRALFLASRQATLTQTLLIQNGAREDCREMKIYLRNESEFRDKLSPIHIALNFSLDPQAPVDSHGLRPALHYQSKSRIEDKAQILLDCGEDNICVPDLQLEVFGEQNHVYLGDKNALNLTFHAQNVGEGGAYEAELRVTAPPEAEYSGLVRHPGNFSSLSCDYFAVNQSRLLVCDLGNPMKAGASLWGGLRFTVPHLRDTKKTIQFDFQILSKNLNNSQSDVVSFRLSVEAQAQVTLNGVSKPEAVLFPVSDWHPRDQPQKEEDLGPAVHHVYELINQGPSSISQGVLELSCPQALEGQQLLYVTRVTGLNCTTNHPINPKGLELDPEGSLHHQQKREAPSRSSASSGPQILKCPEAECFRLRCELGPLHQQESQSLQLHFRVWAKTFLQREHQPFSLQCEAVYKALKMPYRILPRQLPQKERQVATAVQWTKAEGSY
T1 sequence (P05556 21-728 limits assumed): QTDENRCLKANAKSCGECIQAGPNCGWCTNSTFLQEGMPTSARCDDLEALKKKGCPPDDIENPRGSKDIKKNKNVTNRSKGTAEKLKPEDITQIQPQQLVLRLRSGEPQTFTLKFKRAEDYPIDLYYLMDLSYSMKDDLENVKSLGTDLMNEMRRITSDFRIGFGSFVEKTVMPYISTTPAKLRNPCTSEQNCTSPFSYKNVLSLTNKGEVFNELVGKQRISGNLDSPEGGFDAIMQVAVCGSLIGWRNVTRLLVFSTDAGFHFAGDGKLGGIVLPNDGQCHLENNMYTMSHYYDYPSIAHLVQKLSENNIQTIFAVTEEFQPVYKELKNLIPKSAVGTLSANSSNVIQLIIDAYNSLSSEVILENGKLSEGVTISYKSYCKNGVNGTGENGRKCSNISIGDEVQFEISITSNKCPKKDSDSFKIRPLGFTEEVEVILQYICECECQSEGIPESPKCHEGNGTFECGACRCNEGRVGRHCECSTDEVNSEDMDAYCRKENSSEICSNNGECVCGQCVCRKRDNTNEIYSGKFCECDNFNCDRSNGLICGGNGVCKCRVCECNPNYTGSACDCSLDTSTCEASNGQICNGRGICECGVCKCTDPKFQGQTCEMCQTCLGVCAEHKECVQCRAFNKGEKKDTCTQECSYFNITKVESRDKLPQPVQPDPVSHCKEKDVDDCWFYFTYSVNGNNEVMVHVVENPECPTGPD

RGDY(OMe)K [B7]
fibronectin binding to α5β1, % of the maximum signal (α5β1 integrin): 48.4% | adhesion of [51Cr]-A375M cells to vitronectin, normalized to absence of peptide (100%) (A375M melanoma cell line): 72.79%±0.04% | adhesion of [51Cr]-VUP cells to laminin, normalized to absence of peptide (100%) (VUP melanoma cell line): 46.89%±1.45%

Source: patent US20060029544A1, “Receptor-binding cyclic peptides and methods of use” (The Regents of the University of California Office of …, priority 2004, published 2006)
